Test results taken from paper PMC5997408 (Chemical Research in Toxicology, 2017).
One block for each molecule: values may come before it.

Assays:
[1] = target: NQO1 (Homo sapiens, UniProt P15559); assay: Inhibition of recombinant NQO1, DCPIP reduction; assay type: biochemical
[2] = target: T1, NQO2 (Homo sapiens, UniProt P16083); assay: Inhibition of recombinant NQO2, menadione as substrate with BNAH; assay type: biochemical
T1 sequence (P16083 1-231): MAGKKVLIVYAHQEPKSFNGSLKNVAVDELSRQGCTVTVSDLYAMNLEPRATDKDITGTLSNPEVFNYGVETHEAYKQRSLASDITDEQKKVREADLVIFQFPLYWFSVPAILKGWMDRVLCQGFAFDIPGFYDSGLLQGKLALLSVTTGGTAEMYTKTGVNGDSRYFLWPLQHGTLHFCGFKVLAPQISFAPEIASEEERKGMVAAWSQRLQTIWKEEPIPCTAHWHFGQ

[3] = target: T1, NQO2; assay: Enzyme kinetics of DCPIP reduction by NQO2; assay type: biochemical; settings: 50 nM NQO2, 100 µM BNAH
[4] = target: T1, NQO2; settings: 0.25 μM NQO2, tacrine 0, 5, 10, or 20 μM, 50 μM quinone imine
[5] = system: CYP; settings: up to 25 μM of tacrine, all four microsomal-activated drugs (data not shown)
[6] = cited from earlier work
[7] = target: T1, NQO2; assay: Inhibition of recombinant NQO2, MTT reduction with BNAH; assay type: biochemical
[8] = target: T1, NQO2; assay: Inhibition of recombinant NQO2, DCPIP reduction with BNAH; assay type: biochemical

Sequence of NQO1 (P15559 whole entry): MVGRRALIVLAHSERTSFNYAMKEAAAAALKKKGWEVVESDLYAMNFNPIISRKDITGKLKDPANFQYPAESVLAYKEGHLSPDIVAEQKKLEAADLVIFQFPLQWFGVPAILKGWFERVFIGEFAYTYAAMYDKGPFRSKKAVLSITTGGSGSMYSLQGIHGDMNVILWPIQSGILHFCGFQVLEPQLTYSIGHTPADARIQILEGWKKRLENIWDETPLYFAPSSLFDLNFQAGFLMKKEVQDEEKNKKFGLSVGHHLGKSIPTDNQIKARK

- Ki [1]: 40 µM
- Ki [2]: 66 µM
Compound: Cc1cccc(Nc2ccccc2C(=O)O)c1C [mefenamic acid]

- Ki [1]: 13 µM
Compound: O=C(O)Cc1ccccc1Nc1c(Cl)cccc1Cl [diclofenac]

Further lines, the molecule ahead of its results:

Compound: CC(=O)Nc1ccc(O)cc1 [Acetaminophen, acetaminophen]
- inhibition of NQO1 activity ([1]; up to 1 mM): did not inhibit
- inhibition of NQO2 activity ([2]; up to 1 mM): did not inhibit

Compound: O=C1C(Cl)=CC(=Nc2ccc(O)cc2)C=C1Cl [DCPIP, 2,6-dichlorophenolindophenol]
- Km [3]: 25 µM

Compound: Nc1c2c(nc3ccccc13)CCCC2 [tacrine]
- inhibition of NQO2-mediated reduction of synthetic amodiaquine quinone imine [4]: concentration-dependent inhibition
- effect on CYP metabolism [5]: no effect
- plasma concentration of tacrine in humans [6]: around 0.04 μM
- Ki [1]: 193 ± 1 µM
- Ki [7]: 15 ± 1 µM
- Ki ([8]; Ki value, range over DCPIP and MTT as substrate): 3 to 15 µM
- Ki ([8]; Ki, recombinant NQO2, substrate DCPIP (25 μM), 100 μM BNAH, mean ± SD (n = 3)): 3 ± 1 µM
- Ki fold lower than found for NQO2 inhibition by resveratrol ([8]; substrate DCPIP): 9 fold
- Ki for NQO2 fold lower compared to the Ki for NQO1 ([8]; substrate DCPIP): 64 fold
